Legend:
MDA-MB-231 = experiment: Growth inhibition of human MDA-MB-231 cells assessed as cell growth at 1 uM incubated for 48 hrs by sulforhodamine B assay relative to control; format: functional; conditions: MDA-MB-231, 48 h, read-out: Activity
SK-MEL-28 = experiment: Growth inhibition of human SK-MEL-28 cells assessed as cell growth at 0.1 uM incubated for 48 hrs by sulforhodamine B assay relative to control; format: functional; conditions: SK-MEL-28, 48 h, read-out: Activity
IGROV-1 = experiment: Growth inhibition of human IGROV1 cells assessed as cell growth at 0.1 uM incubated for 48 hrs by sulforhodamine B assay relative to control; format: functional; conditions: IGROV-1, 48 h, read-out: Activity
SK-MEL-5 [1] = experiment: Growth inhibition of human SK-MEL-5 cells assessed as cell growth at 0.01 uM incubated for 48 hrs by sulforhodamine B assay relative to control; format: functional; conditions: SK-MEL-5, 48 h, read-out: Activity
OVCAR-8 = experiment: Growth inhibition of human OVCAR8 cells assessed as cell growth at 1 uM incubated for 48 hrs by sulforhodamine B assay relative to control; format: functional; conditions: OVCAR-8, 48 h, read-out: Activity
A498 = experiment: Growth inhibition of human A498 cells assessed as cell growth at 0.01 uM incubated for 48 hrs by sulforhodamine B assay relative to control; format: functional; conditions: A498, 48 h, read-out: Activity
SNB-75 [2] = experiment: Growth inhibition of human SNB75 cells assessed as cell growth at 0.01 uM incubated for 48 hrs by sulforhodamine B assay relative to control; format: functional; conditions: SNB-75, 48 h, read-out: Activity
SK-OV-3 [3] = experiment: Growth inhibition of human SKOV3 cells incubated for 48 hrs by sulforhodamine B assay; format: functional, cell-based; conditions: SK-OV-3, 48 h
TK-10 = experiment: Growth inhibition of human TK10 cells assessed as cell growth at 10 uM incubated for 48 hrs by sulforhodamine B assay relative to control; format: functional; conditions: TK-10, 48 h, read-out: Activity
SK-OV-3 [4] = experiment: Growth inhibition of human SKOV3 cells assessed as cell growth at 0.01 uM incubated for 48 hrs by sulforhodamine B assay relative to control; format: functional; conditions: SK-OV-3, 48 h, read-out: Activity
UACC-257 = experiment: Growth inhibition of human UACC257 cells incubated for 48 hrs by sulforhodamine B assay; format: functional, cell-based; conditions: UACC-257, 48 h
HCT-116 = experiment: Growth inhibition of human HCT116 cells assessed as cell growth at 0.01 uM incubated for 48 hrs by sulforhodamine B assay relative to control; format: functional; conditions: HCT-116, 48 h, read-out: Activity
MOLT-4 = experiment: Growth inhibition of human MOLT4 cells incubated for 48 hrs by sulforhodamine B assay; format: functional, cell-based; conditions: MOLT-4, 48 h
A549 [5] = experiment: Growth inhibition of human A549/ATCC cells incubated for 48 hrs by sulforhodamine B assay; format: functional, cell-based; conditions: A549, 48 h
DU-145 [6] = experiment: Growth inhibition of human DU145 cells incubated for 48 hrs by sulforhodamine B assay; format: functional, cell-based; conditions: DU-145, 48 h
SK-MEL-5 [7] = experiment: Growth inhibition of human SK-MEL-5 cells assessed as cell growth at 1 uM incubated for 48 hrs by sulforhodamine B assay relative to control; format: functional; conditions: SK-MEL-5, 48 h, read-out: Activity
MDA-MB-435 = experiment: Growth inhibition of human MDA-MB-435 cells assessed as cell growth at 0.01 uM incubated for 48 hrs by sulforhodamine B assay relative to control; format: functional; conditions: MDA-MB-435, 48 h, read-out: Activity
SK-OV-3 [8] = experiment: Growth inhibition of human SKOV3 cells assessed as cell growth at 1 uM incubated for 48 hrs by sulforhodamine B assay relative to control; format: functional; conditions: SK-OV-3, 48 h, read-out: Activity
K562 [9] = experiment: Growth inhibition of human K562 cells assessed as cell growth at 0.1 uM incubated for 48 hrs by sulforhodamine B assay relative to control; format: functional; conditions: K562, 48 h, read-out: Activity
SF-295 = experiment: Growth inhibition of human SF295 cells assessed as cell growth at 100 uM incubated for 48 hrs by sulforhodamine B assay relative to control; format: functional; conditions: SF-295, 48 h, read-out: Activity
NCI-H226 = experiment: Growth inhibition of human NCI-H226 cells assessed as cell growth at 1 uM incubated for 48 hrs by sulforhodamine B assay relative to control; format: functional; conditions: NCI-H226, 48 h, read-out: Activity
COLO 205 = experiment: Growth inhibition of human COLO205 cells assessed as cell growth at 100 uM incubated for 48 hrs by sulforhodamine B assay relative to control; format: functional; conditions: COLO 205, 48 h, read-out: Activity
OVCAR-3 = experiment: Growth inhibition of human OVCAR3 cells assessed as cell growth at 0.1 uM incubated for 48 hrs by sulforhodamine B assay relative to control; format: functional; conditions: OVCAR-3, 48 h, read-out: Activity
DU-145 [10] = experiment: Growth inhibition of human DU145 cells assessed as cell growth at 0.01 uM incubated for 48 hrs by sulforhodamine B assay relative to control; format: functional; conditions: DU-145, 48 h, read-out: Activity
A549 [11] = experiment: Growth inhibition of human A549/ATCC cells assessed as cell growth at 0.1 uM incubated for 48 hrs by sulforhodamine B assay relative to control; format: functional; conditions: A549, 48 h, read-out: Activity
SNB-75 [12] = experiment: Growth inhibition of human SNB75 cells incubated for 48 hrs by sulforhodamine B assay; format: functional, cell-based; conditions: SNB-75, 48 h
K562 [13] = experiment: Growth inhibition of human K562 cells assessed as cell growth at 100 uM incubated for 48 hrs by sulforhodamine B assay relative to control; format: functional; conditions: K562, 48 h, read-out: Activity
SF-268 = experiment: Growth inhibition of human SF268 cells assessed as cell growth at 100 uM incubated for 48 hrs by sulforhodamine B assay relative to control; format: functional; conditions: SF-268, 48 h, read-out: Activity
RPMI-8226 = experiment: Growth inhibition of human RPMI8226 cells assessed as cell growth at 100 uM incubated for 48 hrs by sulforhodamine B assay relative to control; format: functional; conditions: RPMI-8226, 48 h, read-out: Activity
[14] = read-out: LC50 (the source's name)
[15] = read-out: pLC50 (the source's name) (converted)

`O=C(Nc1cccc(-n2cc(-c3ccncc3)c(-c3cc(O)cc(Cl)c3)n2)c1)c1cc(C(F)(F)F)cc(C(F)(F)F)c1` was tested, and the growth at 1 µM (MDA-MB-231) was 70%, the growth at 0.1 µM (SK-MEL-28) was 103% and the growth at 0.1 µM (IGROV-1) was 98%. The growth at 0.01 µM (SK-MEL-5 [1]) was 97%, the growth at 1 µM (OVCAR-8) was 91% and the growth at 0.01 µM (A498) was 53%. The growth at 0.01 µM (SNB-75 [2]) was 58%, the GI50 (SK-OV-3 [3]; read-out: GI50) was 1.08 µM and the CC50 (SK-OV-3 [3]; [14]) was over 100 µM. The TGI (SK-OV-3 [3]; read-out: TGI) was over 100 µM, the GI50 (SK-OV-3 [3]; read-out: pGI50 (converted)) was 10.7 µM and the CC50 (SK-OV-3 [3]; [15]) was over 100 µM. For the same molecule, the TGI (SK-OV-3 [3]; read-out: pTGI (converted)) was over 100 µM, the growth at 10 µM (TK-10) was 73% and the growth at 0.01 µM (SK-OV-3 [4]) was 102%. The GI50 (UACC-257; read-out: GI50) was 4.23 µM, the CC50 (UACC-257; [14]) was over 100 µM and the TGI (UACC-257; read-out: TGI) was 51.2 µM. The GI50 (UACC-257; read-out: pGI50 (converted)) was 4.27 µM, the CC50 (UACC-257; [15]) was over 100 µM and the TGI (UACC-257; read-out: pTGI (converted)) was 51.3 µM. It also gave a growth at 0.01 µM (HCT-116) of 102%, a GI50 (MOLT-4; read-out: GI50) of 2.38 µM and a CC50 (MOLT-4; [14]) of over 100 µM. The TGI (MOLT-4; read-out: TGI) was over 100 µM, the GI50 (MOLT-4; read-out: pGI50 (converted)) was 2.4 µM and the CC50 (MOLT-4; [15]) was over 100 µM. For the same molecule, the TGI (MOLT-4; read-out: pTGI (converted)) was over 100 µM, the IC50 (A549 [5]) was 2.62 µM and the GI50 (A549 [5]; read-out: GI50) was 2.52 µM. For the same molecule, the CC50 (A549 [5]; [14]) was over 100 µM, the TGI (A549 [5]; read-out: TGI) was over 100 µM and the GI50 (A549 [5]; read-out: pGI50 (converted)) was 2.63 µM. It also gave a CC50 (A549 [5]; [15]) of over 100 µM, a TGI (A549 [5]; read-out: pTGI (converted)) of over 100 µM and a GI50 (DU-145 [6]; read-out: GI50) of 5.1 µM. For the same molecule, the CC50 (DU-145 [6]; [14]) was over 100 µM, the TGI (DU-145 [6]; read-out: TGI) was over 100 µM and the GI50 (DU-145 [6]; read-out: pGI50 (converted)) was 5.25 µM. It also gave a CC50 (DU-145 [6]; [15]) of over 100 µM, a TGI (DU-145 [6]; read-out: pTGI (converted)) of over 100 µM and a growth at 1 µM (SK-MEL-5 [7]) of 90%. It also gave a growth at 0.01 µM (MDA-MB-435) of 91%, a growth at 1 µM (SK-OV-3 [8]) of 100% and a growth at 0.1 µM (K562 [9]) of 89%. For the same molecule, the growth at 100 µM (SF-295) was -38%, the growth at 1 µM (NCI-H226) was 91% and the growth at 100 µM (COLO 205) was -7%. It also gave a growth at 0.1 µM (OVCAR-3) of 102%, a growth at 0.01 µM (DU-145 [10]) of 104% and a growth at 0.1 µM (A549 [11]) of 95%. It also gave a GI50 (SNB-75 [12]; read-out: GI50) of 2.3 µM, a CC50 (SNB-75 [12]; [14]) of over 100 µM and a TGI (SNB-75 [12]; read-out: TGI) of over 100 µM. The GI50 (SNB-75 [12]; read-out: pGI50 (converted)) was 2.82 µM, the CC50 (SNB-75 [12]; [15]) was over 100 µM and the TGI (SNB-75 [12]; read-out: pTGI (converted)) was over 100 µM. It also gave a growth at 100 µM (K562 [13]) of 7%, a growth at 100 µM (SF-268) of 31% and a growth at 100 µM (RPMI-8226) of -4%.
